Test results taken from patent US20240108725A1, “METHOD FOR TREATING CANCER AND SYSTEM FOR SAME” (OTSUKA MEDICAL DEVICES CO., LTD, priority 2020, published 2024).
Structures can show the parent of a compound that is named as a salt.

Key:
C6 cells [1] = test: Rate of dead cells in PDT-treated or anti-cancer agent-treated C6 cells (Annexin V/PI), Example 2; type: cell-based, rat; conditions: C6 cells cultured 48 hours with MTX 20 μg/mL, DOX 75 μg/mL or EPI 62.5 μg/mL
Protocol: C6 cells were cultured in 2.5% FBS/F-12K medium supplemented with 5-ALA to a final concentration of 1 mM in a 5% CO2 incubator at 37° C. for 24 hours. After the culture, the cells were removed with 0.25% trypsin-EDTA solution, and the collected cells were adjusted to 2×10^7 cells/mL with PBS. The cell suspension thus prepared was injected into a Tygon tube (inner diameter: 0.79 mm), wrapped around a light irradiator (Otsuka Electronics Co., Ltd.), and irradiated with light having a wavelength of 630 nm and an irradiation energy density of 7.5 J/cm^2 (illuminance of 124.5 mW/cm^2 for 1 minute). The treated cells were pooled and the irradiation was repeated until the required dose was obtained. The irradiated cells were divided into three equal parts, and one was administered to F344 rats (8 week-old at the start of study, male, Charles River Laboratories Japan Inc.) at 0.5 mL (1×10^7 cells) per animal from the tail vein under isoflurane anesthesia (PDT iv group, 3 animals). Another one was centrifuged to remove its culture supernatant and adjusted to 2×10^7 cells/mL with PBS, and the cell suspension thus prepared was administered at 0.5 mL (1×10^7 cells) per animal from the tail vein in the same manner as the PDT iv group (PDT-cell iv group, 3 animals). The cells of the remaining one of the three equal parts were suspended in 2.5% FBS/F-12K medium and cultured in a 5% CO2 incubator at 37° C. for 24 hours, and then collected and adjusted to 2×10^7 cells/mL with PBS, and the cell suspension thus prepared was administered at 0.5 mL (1×10^7 cells) per animal from the tail vein in the same manner as other groups (PDT/24 h-cell iv group, 3 animals). Intravenous administration of these PDT-treated cells was performed a total of 3 times (Day−15, −8, −1). […]
The PDT-treated or anti-cancer agent-treated C6 cells were stained with FITC-labeled Annexin V and PI by using the FITC Annexin V Apoptosis Detection Kit I. After that, the rate of dead cells was analyzed with a flow cytometer.

[2] = subcutaneous administration; had been reported; cited from earlier work
C6 cells [3] = test: Tumor volume after subcutaneous transplantation of C6 cells in rats given PDT-treated or anti-cancer agent-treated cells intravenously, Example 2; type: in vivo, rat; conditions: intravenous administration of treated C6 cells to rats
Protocol: C6 cells were cultured in 2.5% FBS/F-12K medium supplemented with 5-ALA to a final concentration of 1 mM in a 5% CO2 incubator at 37° C. for 24 hours. After the culture, the cells were removed with 0.25% trypsin-EDTA solution, and the collected cells were adjusted to 2×10^7 cells/mL with PBS. The cell suspension thus prepared was injected into a Tygon tube (inner diameter: 0.79 mm), wrapped around a light irradiator (Otsuka Electronics Co., Ltd.), and irradiated with light having a wavelength of 630 nm and an irradiation energy density of 7.5 J/cm^2 (illuminance of 124.5 mW/cm^2 for 1 minute). The treated cells were pooled and the irradiation was repeated until the required dose was obtained. The irradiated cells were divided into three equal parts, and one was administered to F344 rats (8 week-old at the start of study, male, Charles River Laboratories Japan Inc.) at 0.5 mL (1×10^7 cells) per animal from the tail vein under isoflurane anesthesia (PDT iv group, 3 animals). […]
On the 4th, 6th, 8th and 10th days after preparation of the cancer-bearing rats (Day 4, 6, 8, 10), the major axis and the minor axis of the tumor were measured by using a caliper, and the tumor volume was calculated according to the following formula. […]

| Structure (SMILES) | living cells (Annexin V−/PI−) (C6 cells [1]) | immunostimulatory effects [2] | antitumor immunity (C6 cells [3]) |
| --- | --- | --- | --- |
| COc1cccc2c1C(=O)c1c(O)c3c(c(O)c1C2=O)C[C@@](O)(C(=O)CO)C[C@@H]3O[C@H]1C[C@H](N)[C@H](O)[C@H](C)O1 [DOX, doxorubicin hydrochloride] | 5% | immunostimulatory effects | not induced |
| COc1cccc2c1C(=O)c1c(O)c3c(c(O)c1C2=O)C[C@@](O)(C(=O)CO)C[C@@H]3O[C@H]1C[C@H](N)[C@@H](O)[C@H](C)O1 [EPI, epirubicin hydrochloride] | 5% | – | – |
| O=C1c2c(O)ccc(O)c2C(=O)c2c(NCCNCCO)ccc(NCCNCCO)c21 [MTX, mitoxantrone dihydrochloride] | 1% | – | – |
